ChEMBL document CHEMBL1201862, “PubChem BioAssay data set” (2004)
Blank lines part the entries; values can stand above or below the compound they belong to. The source made the active and inactive calls.

Tests used:
[1] = target: Mitogen-activated protein kinase 10 (Homo sapiens, UniProt P53779); experiment: Dose response biochemical screening assay for inhibitors of c-Jun N-Terminal Kinase 3 (JNK3). [Related pubchem assays: 746 ]
[2] = general mammalian cell viability loss – inhibitor set, cherry-pick, set 2, cytotoxicity control for miR-122 modulator project, dose response (AID 720697); type: functional, cell-based
[3] = COV362 cell viability loss – plate reader, dry powder, SA12, cytotoxicity control for PAX8 inhibitor project, dose response (AID 743144); type: functional, cell-based
[4] = toxicity toward immortalized ovarian surface epithelium – cell-based, plate reader, dry powder samples, cytotoxicity control for PAX8 inhibitor project, dose response (AID 743045); type: functional
[5] = A2780 cell killing – plate reader, dry powder samples, cytotoxicity control, dose response (AID 743046); type: functional, cell-based
[6] = OVCAR4 cell viability loss – plate reader, dry powder, SA11, cytotoxicity control for PAX8 inhibitor project, dose response (AID 743150); type: functional, cell-based; details: OVCAR-4
[7] = PAX8-dependent cell viability loss – plate reader, dry powder, dose response (AID 743049); type: functional, cell-based
[8] = non-specific 3'UTR reporter inhibition in Clone20-Shn3RL – cell-based, Renilla luciferase, cherry-picked, counter-screen for Shn3 inhibitor project, dose response (AID 624133); type: functional
[9] = reduction of Shn3 3'UTR-driven luciferase in osteoblasts – cell-based, Clone20 osteoblasts, firefly luciferase, cherry-picked, dose response (AID 624132); type: functional;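 also: firefly luciferase luminescence from reporter carrying the Shn3 3'UTR in osteoblasts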
[10] = Trypanosoma cruzi growth suppression in host cells – NIH3T3 host cells, beta-gal luminescence, confirmation (AID 2044); type: functional, cell-based;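 also: intracellular parasites grown in NIH/3T3 mouse fibroblasts as host cells; luminescent beta-galactosidase reporter signal from transgenic T. cruzi replicating inside host cells; inhibitors lower the luminescence signal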
[11] = OV-90 cell viability loss – plate reader, dry powder, SA8, PAX8 inhibitor project, dose response (AID 743149); type: functional, cell-based
[12] = loss of viability in HepG2 cells – cell-based, CellTiter-Glo, cherry-picked, cytotoxicity control for Shn3 inhibitor project, dose response (AID 624134); type: functional
[13] = target: Paired box protein Pax-8 (Homo sapiens, UniProt Q06710); experiment: PAX8 transcriptional activity inhibition in RMG-I – RMG-I cells, luciferase, cherry-pick, dose response (AID 687027); type: functional, cell-based;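 also: luciferase reporter driven by Pax8 target thyroperoxidase promoter measured by SteadyGlo luminescence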
[14] = OVCAR-3 cell viability loss – plate reader, dry powder samples, PAX8 inhibitor project, dose response (AID 743044); type: functional, cell-based
[15] = general mammalian cell viability loss – activator set, cherry-pick, cytotoxicity control for miR-122 modulator project, dose response (AID 720690); type: functional, cell-based;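 also: HEK293T human cells scored for general mammalian cytotoxicity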
[16] = PAX5 cellular inhibition readout – cell-based, plate reader, dry powder samples, selectivity assay for PAX8 inhibitor project, dose response (AID 743047); type: functional;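 also: HEK293 cells carrying a Pax5 driven CD19 promoter luciferase reporter; potency of inhibitors that lower reporter luminescence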
[17] = target: Heat shock protein HSP 90-alpha (Homo sapiens, UniProt P07900); type: functional, organism-based
[18] = HGIII-sPLA2 enzyme inhibition potency – biochemical, QFRET, IC50, dose response (AID 743457);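 also: green fluorescence rise as the enzyme cleaves BODIPY PC-A2 in liposomes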
[19] = cells; type: functional, cell-based
[20] = IGROV1 cell killing – plate reader, dry powder samples, PAX8 inhibitor project, dose response (AID 743043); type: functional, cell-based; details: IGROV-1
[21] = cells; type: functional, cell-based; remark: listed apart in the source
[22] = NIH3T3 cell viability loss – ATP luminescence, mouse fibroblasts, counter-screen, dose response (AID 2010); type: functional, cell-based;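 also: cells exposed to compound for about 90 hours before reading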
[23] = test system: INS1; experiment: INS-1E survival protection against cytokine death – cell-based, luminescence, retest, dose response (AID 449756); type: functional; details: Rattus norvegicus, INS1;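 also: cell death triggered by IL-1 beta plus TNF-alpha plus IFN-gamma mixture; protective hits raise ATP signal compared with cytokine alone wells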
[24] = COV434 cell viability loss – plate reader, dry powder, SA7, cytotoxicity control for PAX8 inhibitor project, dose response (AID 743145); type: functional, cell-based
[25] = inhibitors acting on PAX2 in cells – cell-based, plate reader, dry powder samples, selectivity assay for PAX8 inhibitor project, dose response (AID 743048); type: functional;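 also: HEK293 cells carrying a WT1 promoter luciferase reporter driven by expressed Pax2; potency is for inhibition of Pax2 driven reporter signal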
[26] = target: Intestinal-type alkaline phosphatase (Mus musculus, UniProt P24822); experiment: PubChem AID 488785; type: functional
[27] = target: RNA-editing ligase 1, mitochondrial (Trypanosoma brucei brucei, UniProt P86926); experiment: inhibition of trypanosome RNA editing ligase – biochemical, fluorescence, Trypanosoma brucei, dose response (AID 1117295); type: functional
[28] = target: T1, Alkaline phosphatase, tissue-nonspecific isozyme (Homo sapiens, UniProt P05186); experiment: TNAP enzyme inhibition by screening hits, dose response, selectivity assay for mouse IAP inhibitor project, biochemical, human TNAP, uHTS hits (AID 488906); type: functional
T1 sequence (P05186 whole entry): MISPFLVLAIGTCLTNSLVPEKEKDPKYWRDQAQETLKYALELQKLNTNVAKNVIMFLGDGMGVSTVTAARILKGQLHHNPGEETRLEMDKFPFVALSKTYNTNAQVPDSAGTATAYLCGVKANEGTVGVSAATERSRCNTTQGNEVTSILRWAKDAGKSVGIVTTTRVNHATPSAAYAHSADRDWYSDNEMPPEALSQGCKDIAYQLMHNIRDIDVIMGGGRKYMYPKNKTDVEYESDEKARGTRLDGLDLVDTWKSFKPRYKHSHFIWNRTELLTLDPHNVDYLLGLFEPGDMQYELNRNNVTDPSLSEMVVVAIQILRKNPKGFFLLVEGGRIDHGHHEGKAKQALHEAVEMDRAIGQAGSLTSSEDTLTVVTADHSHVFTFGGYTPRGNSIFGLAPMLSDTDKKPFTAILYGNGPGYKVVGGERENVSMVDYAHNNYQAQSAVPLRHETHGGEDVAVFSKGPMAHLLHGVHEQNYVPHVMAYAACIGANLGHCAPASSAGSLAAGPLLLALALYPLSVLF

[29] = target: Intestinal-type alkaline phosphatase (Homo sapiens, UniProt P09923); experiment: inhibition of human intestinal alkaline phosphatase – biochemical, dose response (AID 488876); type: functional
[30] = target: Melanin-concentrating hormone receptor 1 (Homo sapiens, UniProt Q99705); experiment: Fluorescence-based counterscreen for antagonists of the G-protein coupled receptor 7 (GPR7): cell-based high throughput dose response assay to identify antagonists of the melanin-concentrating hormone receptor 1 (MCHR1).; type: functional
[31] = target: T2, Neuropeptides B/W receptor type 1 (Homo sapiens, UniProt P48145); experiment: Fluorescence-based dose response cell-based high throughput screening assay to identify antagonists of the G-protein coupled receptor 7 (GPR7). [Related pubchem assays: 1952 (Screening assay (GPR7 antagonists).), 1880 (Summary AID.)]; type: functional
T2 sequence (P48145 whole entry): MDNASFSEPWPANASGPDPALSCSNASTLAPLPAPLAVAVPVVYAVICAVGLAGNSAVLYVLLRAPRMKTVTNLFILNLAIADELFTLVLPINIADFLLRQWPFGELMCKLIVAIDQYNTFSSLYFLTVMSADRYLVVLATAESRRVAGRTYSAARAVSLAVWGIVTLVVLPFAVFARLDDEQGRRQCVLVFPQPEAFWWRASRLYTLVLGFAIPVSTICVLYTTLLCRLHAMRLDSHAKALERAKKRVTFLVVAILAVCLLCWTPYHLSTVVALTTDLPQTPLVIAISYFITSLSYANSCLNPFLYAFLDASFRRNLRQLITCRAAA

[32] = target: Sphingosine 1-phosphate receptor 2 (Homo sapiens, UniProt O95136); experiment: Dose Response Cell Based Assay for Agonists of the S1P2 Receptor. [Related pubchem assays: 729, 736, 843 ]; type: functional
[33] = target: T3, Low molecular weight phosphotyrosine protein phosphatase (Homo sapiens, UniProt P24666); experiment: inhibition of LMPTP-A enzymatic activity – biochemical, OMFP substrate, fluorescence intensity, set 2, dose response (AID 743307); type: functional
T3 sequence (P24666 whole entry): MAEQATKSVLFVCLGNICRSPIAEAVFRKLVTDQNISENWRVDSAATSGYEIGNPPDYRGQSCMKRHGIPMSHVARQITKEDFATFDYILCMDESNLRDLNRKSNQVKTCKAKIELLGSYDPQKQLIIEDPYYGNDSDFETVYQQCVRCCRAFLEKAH

[34] = target: T3, Low molecular weight phosphotyrosine protein phosphatase; experiment: inhibition of human LMPTP enzyme activity – biochemical, absorbance, pNPP substrate, LMPTP-A isoform, set 2, orthogonal assay, dose response (AID 743308); type: functional
[35] = viability loss in A549 lung cancer cells – cell-based, CellTiter-Glo luminescence, dry powder, set 5, cytotoxicity control, dose response (AID 743158); type: functional
[36] = viability loss in HepG2 hepatoma cells – cell-based, ATP luminescence, dry powder, set 2, cytotoxicity control, dose response (AID 743129); type: functional
[37] = growth inhibition of PfATP4-mutant resistant parasites – NITD609-resistant line, SYBR Green, dry powder, dose response (AID 1159571); type: functional, cell-based;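 also: parasites synchronized at ring stage by sorbitol before testing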
[38] = P. falciparum Dd2 growth inhibitors, dose response, SYBR Green, cherry-picked samples (AID 1159567); type: functional, cell-based
[39] = Plasmodium falciparum Dd2 Sybr green parasite growth Measured in Cell-Based and Microorganism Combination System Using Plate Reader - 2153-01_Inhibitor_Dose_DryPowder_Activity_Set3.; type: functional
[40] = Dd2 malaria parasite growth inhibition potency – SYBR Green, dry powder samples, dose response (AID 1159566); type: functional, cell-based;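 also: potency for growth inhibition with lower SYBR green DNA signal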
[41] = growth inhibition of yeast DHODH-expressing 3D7 parasites – SYBR Green, dry powder samples, dose response (AID 1159570); type: functional, cell-based;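 also: parasite growth measured after 72 hours of compound exposure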
[42] = toxicity to human HepG2 hepatoma cells – cell-based, plate reader, dry powder samples, cytotoxicity control, dose response (AID 1159569); type: functional;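 also: inhibitor potency with signal falling toward the positive control level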
[43] = Dd2 parasite growth inhibition in erythrocytes – SYBR Green, dry powder samples, set 9, dose response (AID 1159568); type: functional, cell-based
[44] = target: Phospholipase D2 (Homo sapiens, UniProt O14939); experiment: PLD2 Cellular Concentration Response Study.; type: functional
[45] = target: Phospholipase D1 (Homo sapiens, UniProt Q13393); experiment: PLD1 Cellular Concentration Response Study.; type: functional
[46] = Potency on glucagon-like peptide 1 release, dose-response in NCI-H716 cell line, half maximal inhibitory concentration (AID 1117344); type: functional, cell-based
[47] = glucagon-like peptide-1 release potency in STC-1, concentration-response, half-maximal inhibitory concentration in the STC-1 line (AID 1117345); type: functional, cell-based
[48] = IC50 of insulin release inhibition, rat insulinoma INS-1E line, 5 mM glucose, cell-based (AID 1117331); type: functional
[49] = rise of 2N DNA cells, HeLa – IC50, dose response (AID 1117349); type: functional, cell-based
[50] = rise of 4N DNA cells, HeLa – IC50, dose response (AID 1117351); type: functional, cell-based

Chain of Phospholipase D2 (O14939 whole entry): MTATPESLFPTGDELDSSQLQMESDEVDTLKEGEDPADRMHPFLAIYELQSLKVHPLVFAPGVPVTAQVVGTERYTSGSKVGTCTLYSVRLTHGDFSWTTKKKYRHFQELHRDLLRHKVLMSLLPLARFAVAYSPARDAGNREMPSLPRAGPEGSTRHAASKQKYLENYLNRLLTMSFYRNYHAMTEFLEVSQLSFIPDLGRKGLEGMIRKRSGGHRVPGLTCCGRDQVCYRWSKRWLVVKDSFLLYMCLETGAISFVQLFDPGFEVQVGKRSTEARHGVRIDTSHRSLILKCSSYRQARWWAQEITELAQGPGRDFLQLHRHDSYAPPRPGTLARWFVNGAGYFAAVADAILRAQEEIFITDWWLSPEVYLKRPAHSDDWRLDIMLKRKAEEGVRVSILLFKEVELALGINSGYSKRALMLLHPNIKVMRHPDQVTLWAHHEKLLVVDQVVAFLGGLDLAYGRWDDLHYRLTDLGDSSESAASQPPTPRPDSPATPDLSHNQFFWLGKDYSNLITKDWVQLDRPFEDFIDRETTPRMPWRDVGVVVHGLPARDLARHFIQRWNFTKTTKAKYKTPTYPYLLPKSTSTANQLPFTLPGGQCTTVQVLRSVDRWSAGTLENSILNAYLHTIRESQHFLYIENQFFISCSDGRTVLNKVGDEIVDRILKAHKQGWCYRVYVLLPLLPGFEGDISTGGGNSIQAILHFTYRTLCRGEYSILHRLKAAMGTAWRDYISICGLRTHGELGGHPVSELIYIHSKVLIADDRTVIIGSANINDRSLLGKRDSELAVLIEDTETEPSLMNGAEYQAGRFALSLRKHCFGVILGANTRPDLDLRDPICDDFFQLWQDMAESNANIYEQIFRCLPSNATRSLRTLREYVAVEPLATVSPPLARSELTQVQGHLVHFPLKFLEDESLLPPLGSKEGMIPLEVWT
Chain of Mitogen-activated protein kinase 10 (P53779 whole entry): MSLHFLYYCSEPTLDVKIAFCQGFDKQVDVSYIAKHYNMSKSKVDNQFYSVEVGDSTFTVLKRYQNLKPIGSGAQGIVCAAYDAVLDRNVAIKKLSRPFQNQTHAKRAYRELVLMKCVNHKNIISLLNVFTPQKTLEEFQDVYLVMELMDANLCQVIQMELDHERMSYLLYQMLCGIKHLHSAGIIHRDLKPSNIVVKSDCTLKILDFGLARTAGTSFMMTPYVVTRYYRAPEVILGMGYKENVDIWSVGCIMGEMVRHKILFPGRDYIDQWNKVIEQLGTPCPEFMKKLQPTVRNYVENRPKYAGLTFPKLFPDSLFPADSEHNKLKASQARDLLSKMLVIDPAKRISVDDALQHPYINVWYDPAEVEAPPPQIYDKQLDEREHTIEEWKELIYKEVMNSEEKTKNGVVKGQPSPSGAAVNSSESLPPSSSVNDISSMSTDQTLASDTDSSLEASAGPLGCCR
Chain of Paired box protein Pax-8 (Q06710 whole entry): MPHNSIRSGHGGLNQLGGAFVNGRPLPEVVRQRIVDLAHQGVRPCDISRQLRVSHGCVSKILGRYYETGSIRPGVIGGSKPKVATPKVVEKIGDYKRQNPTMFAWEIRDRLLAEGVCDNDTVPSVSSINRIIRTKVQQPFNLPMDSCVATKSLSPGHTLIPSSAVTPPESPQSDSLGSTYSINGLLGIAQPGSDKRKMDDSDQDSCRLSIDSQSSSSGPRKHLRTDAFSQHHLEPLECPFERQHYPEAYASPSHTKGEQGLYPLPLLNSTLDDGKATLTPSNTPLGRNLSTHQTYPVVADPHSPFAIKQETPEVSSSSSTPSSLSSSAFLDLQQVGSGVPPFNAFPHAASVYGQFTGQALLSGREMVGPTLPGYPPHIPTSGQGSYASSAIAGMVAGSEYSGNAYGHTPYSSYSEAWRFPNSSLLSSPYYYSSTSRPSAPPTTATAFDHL
Chain of RNA-editing ligase 1, mitochondrial (P86926 whole entry): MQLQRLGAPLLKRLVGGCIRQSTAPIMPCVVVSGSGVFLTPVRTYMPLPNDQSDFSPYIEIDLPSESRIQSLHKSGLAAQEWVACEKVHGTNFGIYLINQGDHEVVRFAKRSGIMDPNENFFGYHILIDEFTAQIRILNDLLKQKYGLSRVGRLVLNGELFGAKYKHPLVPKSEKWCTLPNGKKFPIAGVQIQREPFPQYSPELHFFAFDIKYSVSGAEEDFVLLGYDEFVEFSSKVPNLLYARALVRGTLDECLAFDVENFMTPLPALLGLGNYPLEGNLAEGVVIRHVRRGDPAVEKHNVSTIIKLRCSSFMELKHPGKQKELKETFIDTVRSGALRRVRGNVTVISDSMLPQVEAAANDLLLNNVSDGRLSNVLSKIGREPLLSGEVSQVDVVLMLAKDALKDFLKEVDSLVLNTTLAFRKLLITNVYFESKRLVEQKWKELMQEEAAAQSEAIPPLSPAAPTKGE
Chain of Melanin-concentrating hormone receptor 1 (Q99705 whole entry): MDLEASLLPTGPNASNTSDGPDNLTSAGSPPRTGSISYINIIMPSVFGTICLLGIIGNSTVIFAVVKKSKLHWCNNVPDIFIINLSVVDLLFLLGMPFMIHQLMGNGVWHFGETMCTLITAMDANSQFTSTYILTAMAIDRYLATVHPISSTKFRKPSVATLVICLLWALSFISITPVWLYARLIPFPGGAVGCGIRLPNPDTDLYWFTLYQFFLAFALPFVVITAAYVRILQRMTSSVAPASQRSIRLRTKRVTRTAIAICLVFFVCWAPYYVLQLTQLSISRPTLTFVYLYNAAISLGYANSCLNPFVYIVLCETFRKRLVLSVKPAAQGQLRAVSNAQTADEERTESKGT
Chain of Intestinal-type alkaline phosphatase (Mus musculus, UniProt P24822) (P24822 whole entry): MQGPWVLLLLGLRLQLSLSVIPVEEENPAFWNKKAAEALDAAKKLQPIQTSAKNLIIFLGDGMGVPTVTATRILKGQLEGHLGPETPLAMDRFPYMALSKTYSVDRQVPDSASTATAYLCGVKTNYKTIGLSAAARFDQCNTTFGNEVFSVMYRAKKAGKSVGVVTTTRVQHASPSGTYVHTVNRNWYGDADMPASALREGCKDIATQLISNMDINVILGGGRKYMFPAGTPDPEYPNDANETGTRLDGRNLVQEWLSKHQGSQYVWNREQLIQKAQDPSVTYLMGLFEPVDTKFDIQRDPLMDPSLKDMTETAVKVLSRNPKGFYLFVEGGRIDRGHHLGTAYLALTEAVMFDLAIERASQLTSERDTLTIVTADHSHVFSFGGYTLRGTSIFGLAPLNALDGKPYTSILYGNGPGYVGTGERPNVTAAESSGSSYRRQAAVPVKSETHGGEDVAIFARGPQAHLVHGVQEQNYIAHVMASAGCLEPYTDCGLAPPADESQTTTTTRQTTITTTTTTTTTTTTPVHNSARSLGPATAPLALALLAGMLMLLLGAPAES
Chain of Sphingosine 1-phosphate receptor 2 (O95136 whole entry): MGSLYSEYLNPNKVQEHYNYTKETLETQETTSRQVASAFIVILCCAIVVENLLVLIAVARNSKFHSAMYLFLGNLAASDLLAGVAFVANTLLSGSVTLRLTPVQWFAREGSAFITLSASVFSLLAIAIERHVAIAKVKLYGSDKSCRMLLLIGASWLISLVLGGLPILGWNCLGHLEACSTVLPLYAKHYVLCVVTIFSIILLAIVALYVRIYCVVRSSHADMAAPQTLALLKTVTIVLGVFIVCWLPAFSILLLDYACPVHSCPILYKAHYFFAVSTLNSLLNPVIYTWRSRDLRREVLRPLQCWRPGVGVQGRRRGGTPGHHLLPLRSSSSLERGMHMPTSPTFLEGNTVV
Chain of Intestinal-type alkaline phosphatase (Homo sapiens, UniProt P09923) (P09923 whole entry): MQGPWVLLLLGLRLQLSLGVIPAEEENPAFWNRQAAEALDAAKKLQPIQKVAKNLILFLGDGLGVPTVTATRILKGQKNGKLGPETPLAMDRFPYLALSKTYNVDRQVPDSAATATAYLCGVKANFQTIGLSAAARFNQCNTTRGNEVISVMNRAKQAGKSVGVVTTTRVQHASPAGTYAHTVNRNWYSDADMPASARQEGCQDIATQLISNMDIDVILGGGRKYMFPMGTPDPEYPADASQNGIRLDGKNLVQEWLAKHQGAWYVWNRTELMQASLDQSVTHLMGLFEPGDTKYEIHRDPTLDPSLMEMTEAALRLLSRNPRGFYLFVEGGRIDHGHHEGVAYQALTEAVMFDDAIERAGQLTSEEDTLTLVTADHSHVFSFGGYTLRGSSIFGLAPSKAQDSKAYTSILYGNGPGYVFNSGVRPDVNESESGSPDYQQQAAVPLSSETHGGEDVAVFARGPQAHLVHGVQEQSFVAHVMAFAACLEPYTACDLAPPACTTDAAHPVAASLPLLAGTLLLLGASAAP

IC50 [1]: > 31 µM (not active)
Compound: COC(=O)c1ccc(Cn2c(O)c(N=O)c3ccccc32)o1

Compound: CCCCC(=O)NC(c1ccccc1OC)c1ccc2cccnc2c1O (stereo not given)
AC50 [2]: 2.22 µM (active)
AC50 [3]: 7.92 µM (active)
AC50 [4]: 5.77 µM (active)
AC50 [5]: 8.16 µM (active)
AC50 [6]: 16.3 µM (active)
AC50 [7]: 20.1 µM (active)
AC50 [8]: 3.18 µM (active)
AC50 [9]: 1.19 µM (active)
EC50 [10]: 0.435 µM (active)
AC50 [11]: 10.7 µM (active)
AC50 [12]: 2.55 µM (active)
AC50 [13]: 2.44 µM (active)
AC50 [14]: 4.87 µM (active)
AC50 [15]: 3.36 µM (active)
AC50 [16]: 3.51 µM (active)
AC50 [17]: 4.38 µM (active)
IC50 [18]: > 122 µM (inactive)
EC50 [19]: > 350 µM (not active)
AC50 [20]: 7.55 µM (active)
EC50 [21]: 6.29 µM (active)
EC50 [22]: 1.27 µM (active)
AC50 [23]: 0.718 µM (active)
AC50 [24]: 6.89 µM (active)
AC50 [25]: 3.22 µM (active)

IC50 [26]: 0.485 µM (active)
IC50 [27]: 35.5 µM (inactive)
IC50 [28]: > 100 µM (inactive)
IC50 [29]: > 100 µM (inactive)
Compound: N#Cc1c(SCC(=O)Nc2nccs2)sc2c(O)cc(O)nc12

IC50 [30]: > 43.8 µM (not active)
IC50 [31]: > 43.8 µM (not active)
Compound: O=C(O)c1ccc(NCc2cccc(Br)c2)cc1

EC50 [32]: > 50 µM (not active)
Compound: C(=C\c1ccccc1)/CSc1nnc(-c2ccccc2)n1Cc1ccco1

IC50 [33]: 22 µM (inactive)
IC50 [34]: 21 µM (inactive)
Compound: Fc1ccc2nc(-c3ccccc3)cc(NCCCN3CCCCC3)c2c1

Compound: CCOC(=O)c1c(-c2ccc(C(C)(C)C)cc2)csc1NC(=O)CN1CCN(C)CC1
AC50 [35]: 21.4 µM (active)
AC50 [36]: 16.4 µM (active)

Compound: COc1ccccc1-c1ccc([C@@H]2[C@@H](C#N)N[C@@H]2CO)cc1
AC50 [37]: 0.946 µM (active)
AC50 [38]: 3.02 µM (active)
AC50 [39]: 6.32 µM (active)
AC50 [40]: 0.907 µM (active)
AC50 [41]: 3.22 µM (active)
AC50 [42]: > 100 µM (inactive)

Compound: C[C@H]1CCCCO[C@H](CN(C)S(=O)(=O)c2ccccc2)[C@@H](C)CN([C@@H](C)CO)C(=O)c2cc(NC(=O)Nc3ccc4c(c3)OCO4)ccc2O1
AC50 [43]: 2.22 µM (active)

Compound: O=C(NCCN1CCC2(CC1)C(=O)NCN2Cc1ccccc1)c1ccc2ccccc2c1
IC50 [44]: 0.89 µM (active)
IC50 [45]: 8.26 µM (active)

Compound: CC(COc1ccccc1)NN (stereo not given) [PHENOXYPROPAZINE]
IC50 [46]: > 40 µM (inactive)
IC50 [47]: 27.2 µM (inactive)
IC50 [48]: > 33.3 µM (inactive)

Compound: CC[C@]1(O)C[C@H]2CN(CCc3c([nH]c4ccccc34)[C@@](C(=O)OC)(c3cc4c(cc3OC)N(C=O)[C@H]3[C@@](O)(C(=O)OC)[C@H](OC(C)=O)[C@]5(CC)C=CCN6CC[C@]43[C@@H]65)C2)C1 [VINCRISTINE]
IC50 [49]: 0.0062 µM (active)
IC50 [50]: 0.0059 µM (active)
